Tests used:
Assay type in all cases: in vivo
[1] = system: Adult mosquitoes (Culex quinquefasciatus); experiment: Mosquito chamber test, protection time until first bite on lotion-coated arms of human volunteers; settings: for Protection Time: 5 wt % in lotion base, elbow to fingertips of human volunteers, time to first bite, mean ± SEM, 4 volunteers
Method: Adult mosquitoes (Culex quinquefasciatus) were kept inside a screened chamber measuring 2 ft×2 ft×2 ft at a density of 200 mosquitoes per chamber. The mosquitoes are aged 3 to 10 days after emergence from larvae and were starved for 24 hours prior to each test. Each of the test compounds (supplied as a gift from Symrise GmbH & Co Kg, Holzminden, Germany) was added to a commercial lotion base (Cresto Laboratories, […], Philippines) and thoroughly mixed into the lotion using an electronic mixer. The resulting formulation was applied from the elbow to the tip of the fingers of human volunteers. The coated arms of the volunteers were then inserted, in turn, inside the chamber up to the elbow. The protection time was determined for each formulation as the length of time until a mosquito had taken its first bite, after which the test was terminated. The data in Table 1 show the protection time determined in this manner for the compounds tested.

[2] = system: red ant (pharaoh ant, Monomorium pharaonis); experiment: Ant repellent test, impregnated filter paper barrier around table leg; settings: mean ± SEM of 5 tests
Method: The red ant (pharaoh ant, Monomorium pharaonis) was selected for this ant repellent test since it has a worldwide distribution and is known to be a household pest. Red ants are attracted to the smell of food. The attractant in this experiment was a piece of chocolate, which was placed on a tabletop 5 hours before the test. Within 2 hours after being released on the ground around the table, the red ants established a route from the ground up the table legs. At the 5th hour, a filter paper impregnated with racemic menthol propyleneglycol-carbonate at two concentrations was placed around the middle portion of the table leg. The test compound was dissolved in ethanol and impregnated into a pre-weighed, 2 inch by 7 inch piece of filter paper. After complete evaporation of ethanol, the filter paper was weighed and the final weight of the test compound was determined per cm^2 of the filter paper. The control employed was the same filter paper soaked with ethanol only. The time for the first ant to cross the filter paper barrier was determined.

[3] = system: mosquito biting activity; experiment: Mosquito chamber protection time of combinations with DEET and citronella product (Natrapel); settings: both at 10% w/w in hydrophilic ointment base, arms of 3 human volunteers
Method: To test the effectiveness of menthol propyleneglycol-carbonate(menthol propyleneglycol-carbonate) in enhancing the effect of the known insect repellent DEET against mosquito biting activity, this study was undertaken by combining racemic menthol propyleneglycol-carbonate with DEET (purchased from Sigma-Aldrich). The two chemicals were added at 10% w/w in an Hydrophilic ointment base (E. Fougera & Co., Melville, N.Y.) and applied on the exposed arms of human volunteers. The treated arms were inserted inside a mosquito chamber and the protection time was determined. […] The recorded data represents the mean and standard error of 3 human volunteers.
To test the effectiveness of menthol propyleneglycol-carbonate in enhancing the effect of another known mosquito repellent product, an experiment was undertaken in Which menthol propyleneglycol-carbonate was added at a concentration of 10% w/w to a citronella-based product (Natrapel) manufactured by Tender Corporation (Littleton, N.H.).

[4] = system: mosquito; experiment: Outdoor mosquito tests, protection time on exposed arms of human volunteers; settings: outdoors from 3:00 PM, 3 human volunteers per group, test chemical 10% w/w in ointment base, ± SEM
Method: To validate the efficacy of menthol propyleneglycol-carbonate under ambient conditions in nature, this chemical was mixed in an ointment base at 10% w/w and applied to the exposed arms of human volunteers who remained outdoors during the peak period of mosquito biting, beginning at 3:00 PM. The protection time was recorded and compared with that obtained from human volunteers using a commercially available insect repellent (OFF! Skintastic; 7% DEET) manufactured by SC Johnson & Sons, Inc. (Racine, Wis.). Control ointment consisted of Fougera ointment without any active ingredient. The protection time was determined for 3 human volunteers for each test group.

[5] = system: milk termite, Coptotermes vastator; experiment: Inhibition of termite infestation, weight loss of impregnated soft wood
Method: The milk termite, Coptotermes vastator, is a pest found in tropical and sub-tropical areas. To test the efficacy of racemic menthol propyleneglycol-carbonate, this chemical was dissolved in 95% ethanol at concentration of 10% w/w and pieces of pre-weighed soft wood were immersed in the solution for 24 hours. After impregnation, the wood was allowed to dry in air to remove the ethanol which has a lower flash point. The dry wood was reweighed to determine the total amount of racemic menthol propyleneglycol-carbonate absorbed into the wood. The weight of racemic menthol propyleneglycol-carbonate absorbed was 26 milligrams per gram of wood. Controls were prepared using wood impregnated with 95% ethanol alone.
The wood test samples were placed on top of a fallen jackfruit tree (Artocarpus heterophylla) heavily infested by termites under ambient, natural, outdoor conditions for a period of 2 months. At the end of the test period, the wood samples were cleaned of debris and termites, dried in the sun and weighed. The degree of wood preservation was determined by the amount of weight loss during the test period.

[6] = system: fire ants (s. invicta); experiment: Fire ant bait protection test; settings: 50% (v/v) in ethanol sprayed on peanut butter bait, 4 replicates, terminated after 5 hours
Method: In this study, the repellent effect of racemic menthol propyleneglycol-carbonate was examined by preparing a solution of this chemical in ethanol at concentration of 50% (v/v). The solution was sprayed with a pump spray dispenser ([…] & Associates, Duarte, Calif.) to a bait composed of sugary food (in this case, peanut butter). The control was composed of ethanol alone. This study was conducted in Fort Pierce, Fla. The protection time was measured as the time when the first ant started consuming the bait. […] The experiment was terminated after 5 hours of observation. Each study group was composed of 4 replicates. In the control which was sprayed with ethanol alone, the fire ants (s. invicta) were seen on the bait within 3 minutes after the spray was applied.

[7] = system: mosquitoes; experiment: Standard mosquito chamber test of halloysite-entrapped and free active in aloe vera cream; settings: 20% w/w in aloe vera cream, forearm, 3 human volunteers; in min
Method: This study was conducted to evaluate the suitability of encapsulation or entrapment as a means of reducing the amount of racemic menthol propyleneglycol-carbonate required to produce a repellent effect and to provide a means of protecting the active material from degradation by other excipients in the formulation or from high temperatures associated with manufacturing, as in the case of impregnation of textile materials. The halloysite clay represents an example of many other suitable encapsulation materials available in the industry and is not intended as a limitation of the scope of this invention.
Halloysite clay is a naturally derived, nontoxic, biodegradable material typically used in the manufacture of porcelain, bone china and fine china. U.S. Pat. No. 5,651,976 to Price and Gaber describes a new method of controlled release using microtubules made from halloysite clay. […] The halloysite entrapped racemic menthol propyleneglycol-carbonate used in this study was supplied as a gift from Federal Technology Group (Bozeman, Mont.), with a total entrapped active material determined at 17% of the total weight. […] Protection time was measured as the time at which the human subject experienced the first mosquito bite. […]

[8] = system: stable fly or dog fly (Stomoxys calcitrans); experiment: Stable flies landing on sprayed meat bait
Method: To test the effectiveness of racemic menthol propylene glycol carbonate, a 50% solution was prepared in 95% ethanol and sprayed using a standard spray bottle. Stable flies were collected by placing a screened cage containing (Peaceful Valley Farm Supply, Grass Valley, Calif.) bait beside a horse stable one day prior to the test. Approximately 200 stable flies were collected from each cage. The test bait comprising pieces of beef was placed in an aluminum pan at the bottom of the collecting cage. The test was conducted using meat sprayed with 50% racemic menthol propyleneglycol-carbonate solution, with a control composed of meat sprayed with ethanol alone. The test was conducted in duplicate. The number of stable flies landing and feeding on the meat was counted periodically.

isopulegol propyleneglycol-carbonate
Protection Time [1]: 152 ± 36 min

CC1CCC(C(C)C)C(OC(=O)OCCCCCCCCCO)C1 (stereo not shown) [menthyl-9-hydroxynonyl-carbonate]
Protection Time [1]: 79 ± 14 min

CC1CCC(C(C)C)C(OCC(O)CO)C1 (stereo not shown) [menthoxy-propane-1,2-diol]
Protection Time [1]: 68 ± 17 min

C=C(C)C1CCC(C)CC1O (single isomer, unassigned; (-)) [(−)-isopulegol, 5-methyl-2-(1-methylethenyl) cyclohexanol, reference compound]
Protection Time [1]: 56 ± 7 min

CC(O)COC(=O)OC1CC(C)CCC1C(C)C (racemic) [racemic menthol propyleneglycol-carbonate]
Protection Time [1]: 283 ± 17 min
effectiveness in preventing mosquito bites relative to menthol or isopulegol ([1]; from Table I protection times, 5 wt % in lotion): almost nine times more effective
inhibitory effect on mosquito bite (FIG. 1) ([1]; lotion containing various concentrations): dose dependent manner
Time to cross barrier ([2]; 15 mg/cm^2 on filter paper): 63 ± 18 min
Time to cross barrier ([2]; 30 mg/cm^2 on filter paper): 760 ± 76 min
protection time / repellent effect of combination with DEET versus either compound alone (FIG. 3) [3]: greater protection time
Protection Time [4]: 227 ± 19 min
termite consumption of the wood ([5]; impregnated wood, 2 months): completely prevented from consuming the wood
Percent of weight loss ([5]; soft wood impregnated from 10% w/w ethanol solution (26 mg per gram of wood), 2 months outdoors on termite-infested tree): 0.8 ± 0.4%
Protection Time [6]: at least 5 hours
Protection Time ([6]; listed as Racemic menthol propyleneglycol-carbonate): >5 h
PROTECTION TIME (Mean ± SEM) [7]: 93 ± 6
time by which the spray lost its efficacy ([8]; from the initial single application of 50% spray): ≤ 9 h
time the spray remained very effective ([8]; single application of 50% spray on meat): at least 5 hours

CC1CCC(C(C)C)C(O)C1 (stereo not shown) [1-menthol, 1-5-methyl-2-isopropyl cyclohexanol, reference compound]
Protection Time [1]: 30 ± 9 min

Reference: patent US20060270737A1, “Menthol propyleneglycol-carbonate and analogs thereof as insect pest repellents” (priority 2003, published 2006)
